{"source": "ChEMBL document CHEMBL5653615", "about": "(J Biol Chem, 2013)", "key": {"[1]": {"molecular_target": "CDK1/Cyclin A (Homo sapiens) (UniProt P06493+P20248)", "sequence (P06493 whole entry, looked up)": "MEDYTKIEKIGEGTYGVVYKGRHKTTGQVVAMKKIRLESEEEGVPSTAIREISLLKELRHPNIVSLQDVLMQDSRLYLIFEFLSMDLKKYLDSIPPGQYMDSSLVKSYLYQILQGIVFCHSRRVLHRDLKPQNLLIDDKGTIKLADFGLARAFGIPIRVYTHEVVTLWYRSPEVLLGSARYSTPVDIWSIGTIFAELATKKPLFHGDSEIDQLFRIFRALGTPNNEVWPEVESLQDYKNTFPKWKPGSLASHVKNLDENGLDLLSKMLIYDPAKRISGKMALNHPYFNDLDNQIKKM", "sequence (P20248 whole entry, looked up)": "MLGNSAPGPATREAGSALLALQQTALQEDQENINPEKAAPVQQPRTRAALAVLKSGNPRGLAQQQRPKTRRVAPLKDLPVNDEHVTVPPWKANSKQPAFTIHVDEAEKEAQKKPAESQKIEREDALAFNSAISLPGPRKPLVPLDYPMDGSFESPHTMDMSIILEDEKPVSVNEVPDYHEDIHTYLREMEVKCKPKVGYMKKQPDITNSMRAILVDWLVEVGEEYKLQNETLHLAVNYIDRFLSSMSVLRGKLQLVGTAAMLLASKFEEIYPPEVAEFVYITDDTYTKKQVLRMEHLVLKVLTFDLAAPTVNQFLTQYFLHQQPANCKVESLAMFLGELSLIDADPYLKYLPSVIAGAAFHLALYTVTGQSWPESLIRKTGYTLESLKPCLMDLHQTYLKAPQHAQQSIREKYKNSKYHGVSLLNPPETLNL", "test": "Inhibition of human CDK1/cyclin A at 500 nM by HotSpot assay relative to control", "assay_type": "protein-complex assay"}, "[2]": {"molecular_target": "T1, Aurora kinase A (Homo sapiens) (UniProt O14965)", "T1 sequence (whole entry)": "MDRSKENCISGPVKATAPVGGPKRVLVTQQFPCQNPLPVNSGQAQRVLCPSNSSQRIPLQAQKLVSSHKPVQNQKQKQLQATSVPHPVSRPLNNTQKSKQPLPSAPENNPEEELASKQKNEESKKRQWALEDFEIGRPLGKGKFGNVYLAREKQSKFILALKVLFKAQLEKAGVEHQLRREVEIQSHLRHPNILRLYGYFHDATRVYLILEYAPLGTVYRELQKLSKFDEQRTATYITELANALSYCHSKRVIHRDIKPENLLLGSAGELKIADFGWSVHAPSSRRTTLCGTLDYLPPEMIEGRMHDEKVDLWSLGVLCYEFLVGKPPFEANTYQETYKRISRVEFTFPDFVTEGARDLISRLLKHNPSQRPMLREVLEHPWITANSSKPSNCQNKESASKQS", "test": "Inhibition of human Aurora A at 500 nM by HotSpot assay relative to control"}, "[3]": {"molecular_target": "Serine/threonine-protein kinase OSR1 (Homo sapiens) (UniProt O95747)", "sequence (O95747 whole entry, looked up)": "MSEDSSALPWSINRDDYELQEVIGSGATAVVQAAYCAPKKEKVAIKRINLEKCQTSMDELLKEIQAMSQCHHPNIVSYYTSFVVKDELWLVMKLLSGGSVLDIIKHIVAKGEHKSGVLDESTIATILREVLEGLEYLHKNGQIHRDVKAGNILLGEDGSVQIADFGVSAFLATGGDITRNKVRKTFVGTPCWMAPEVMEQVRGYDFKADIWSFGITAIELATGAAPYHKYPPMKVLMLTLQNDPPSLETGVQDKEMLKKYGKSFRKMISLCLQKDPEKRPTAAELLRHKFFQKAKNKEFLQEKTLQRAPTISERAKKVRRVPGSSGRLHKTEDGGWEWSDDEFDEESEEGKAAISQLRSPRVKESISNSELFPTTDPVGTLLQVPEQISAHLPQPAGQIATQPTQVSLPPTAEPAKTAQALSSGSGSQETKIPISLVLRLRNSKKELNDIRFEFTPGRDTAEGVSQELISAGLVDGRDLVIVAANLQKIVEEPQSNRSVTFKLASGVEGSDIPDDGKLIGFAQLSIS", "test": "Inhibition of human OXSR1 at 500 nM by HotSpot assay relative to control"}, "[4]": {"molecular_target": "T2, Protein kinase C epsilon type (Homo sapiens) (UniProt Q02156)", "T2 sequence (whole entry)": "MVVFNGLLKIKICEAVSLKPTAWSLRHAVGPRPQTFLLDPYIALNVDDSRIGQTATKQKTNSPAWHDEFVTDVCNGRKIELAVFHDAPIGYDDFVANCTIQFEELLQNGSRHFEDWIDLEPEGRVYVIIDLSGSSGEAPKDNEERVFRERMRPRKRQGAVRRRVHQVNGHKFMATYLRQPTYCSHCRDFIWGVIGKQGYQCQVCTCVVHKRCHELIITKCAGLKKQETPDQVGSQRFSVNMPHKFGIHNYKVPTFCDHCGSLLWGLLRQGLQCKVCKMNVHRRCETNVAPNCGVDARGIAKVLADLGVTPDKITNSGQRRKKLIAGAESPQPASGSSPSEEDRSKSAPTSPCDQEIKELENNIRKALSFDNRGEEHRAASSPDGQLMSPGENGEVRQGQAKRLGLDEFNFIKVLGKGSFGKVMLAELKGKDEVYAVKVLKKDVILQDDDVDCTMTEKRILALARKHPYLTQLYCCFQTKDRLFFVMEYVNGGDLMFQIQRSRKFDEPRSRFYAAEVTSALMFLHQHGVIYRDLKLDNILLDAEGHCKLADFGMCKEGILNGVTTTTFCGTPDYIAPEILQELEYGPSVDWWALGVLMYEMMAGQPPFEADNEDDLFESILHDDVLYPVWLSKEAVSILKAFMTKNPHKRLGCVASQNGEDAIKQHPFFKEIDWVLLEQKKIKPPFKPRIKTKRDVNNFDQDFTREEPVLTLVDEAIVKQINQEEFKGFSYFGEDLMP", "test": "Inhibition of human PKCepsilon at 500 nM by HotSpot assay relative to control"}, "[5]": {"molecular_target": "Protein kinase C eta type (Homo sapiens) (UniProt P24723)", "sequence (P24723 whole entry)": "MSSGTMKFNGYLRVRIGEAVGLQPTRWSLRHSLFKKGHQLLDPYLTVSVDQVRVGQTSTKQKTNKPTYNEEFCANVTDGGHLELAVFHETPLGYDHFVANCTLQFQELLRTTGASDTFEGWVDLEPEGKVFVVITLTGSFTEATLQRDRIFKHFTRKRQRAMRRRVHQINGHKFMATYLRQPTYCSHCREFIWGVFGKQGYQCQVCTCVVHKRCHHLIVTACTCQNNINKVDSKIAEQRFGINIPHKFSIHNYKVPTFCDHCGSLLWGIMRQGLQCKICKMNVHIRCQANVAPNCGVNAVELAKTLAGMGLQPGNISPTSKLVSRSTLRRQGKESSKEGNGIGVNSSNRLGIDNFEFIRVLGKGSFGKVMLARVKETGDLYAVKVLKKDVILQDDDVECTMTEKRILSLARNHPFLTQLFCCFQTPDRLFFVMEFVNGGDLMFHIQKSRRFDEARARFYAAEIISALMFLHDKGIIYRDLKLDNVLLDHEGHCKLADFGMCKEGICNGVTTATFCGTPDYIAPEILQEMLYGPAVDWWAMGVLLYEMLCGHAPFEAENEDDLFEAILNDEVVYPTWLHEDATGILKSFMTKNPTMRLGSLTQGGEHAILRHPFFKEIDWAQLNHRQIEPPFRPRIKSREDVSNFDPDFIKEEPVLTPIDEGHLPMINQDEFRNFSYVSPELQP", "test": "Inhibition of human PKCeta at 500 nM by HotSpot assay relative to control"}, "[6]": {"molecular_target": "T3, Tyrosine-protein kinase ITK/TSK (Homo sapiens) (UniProt Q08881)", "T3 sequence (whole entry)": "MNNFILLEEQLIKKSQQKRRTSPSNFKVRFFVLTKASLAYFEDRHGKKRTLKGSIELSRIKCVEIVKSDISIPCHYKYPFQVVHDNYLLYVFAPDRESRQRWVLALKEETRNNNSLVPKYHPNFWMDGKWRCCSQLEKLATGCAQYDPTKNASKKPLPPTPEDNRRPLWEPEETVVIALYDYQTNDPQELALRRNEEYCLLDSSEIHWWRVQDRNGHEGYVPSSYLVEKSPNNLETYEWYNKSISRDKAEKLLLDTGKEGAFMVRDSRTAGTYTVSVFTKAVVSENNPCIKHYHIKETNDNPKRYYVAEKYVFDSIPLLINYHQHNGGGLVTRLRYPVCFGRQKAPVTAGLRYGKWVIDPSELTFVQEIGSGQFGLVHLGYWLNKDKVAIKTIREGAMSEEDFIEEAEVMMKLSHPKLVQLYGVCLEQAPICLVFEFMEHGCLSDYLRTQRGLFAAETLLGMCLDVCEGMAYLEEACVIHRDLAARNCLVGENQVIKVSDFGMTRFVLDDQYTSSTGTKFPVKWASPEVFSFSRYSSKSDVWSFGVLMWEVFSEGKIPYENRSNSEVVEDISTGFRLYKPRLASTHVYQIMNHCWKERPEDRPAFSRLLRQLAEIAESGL", "test": "Inhibition of human ITK at 500 nM by HotSpot assay relative to control"}, "[7]": {"test": "Inhibition of inactive form of human Insulin receptor (978 to 1283 residues) C981S mutant kinase domain expressed in baculovirus infected Sf9 cells incubated for 1 hr by [gamma-33P]ATP assay"}, "[8]": {"molecular_target": "T4, Serine/threonine-protein kinase Nek11 (Homo sapiens) (UniProt Q8NG66)", "T4 sequence (whole entry)": "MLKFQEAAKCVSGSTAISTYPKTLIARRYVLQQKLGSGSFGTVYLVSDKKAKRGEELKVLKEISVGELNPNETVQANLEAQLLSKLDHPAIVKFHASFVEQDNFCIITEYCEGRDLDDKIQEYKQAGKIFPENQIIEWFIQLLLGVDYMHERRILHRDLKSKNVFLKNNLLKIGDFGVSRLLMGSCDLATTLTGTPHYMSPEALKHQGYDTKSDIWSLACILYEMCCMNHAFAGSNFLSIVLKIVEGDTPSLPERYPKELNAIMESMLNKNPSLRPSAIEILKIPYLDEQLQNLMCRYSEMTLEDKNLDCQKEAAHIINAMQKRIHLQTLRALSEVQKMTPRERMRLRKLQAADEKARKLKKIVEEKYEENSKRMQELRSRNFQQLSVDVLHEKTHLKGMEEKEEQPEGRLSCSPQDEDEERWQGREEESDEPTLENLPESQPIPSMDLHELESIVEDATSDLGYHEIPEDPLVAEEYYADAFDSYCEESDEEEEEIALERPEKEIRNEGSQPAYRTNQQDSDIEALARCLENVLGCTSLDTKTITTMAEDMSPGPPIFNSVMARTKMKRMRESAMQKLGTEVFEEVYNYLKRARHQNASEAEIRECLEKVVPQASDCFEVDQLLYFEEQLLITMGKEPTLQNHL", "test": "Inhibition of human NEK11 at 500 nM by HotSpot assay relative to control"}}, "data": [{"compound": "Oc1n[nH]c2nnc(-c3c(-c4ccccc4)nn4ccccc34)cc12", "values": [{"measurement": "inhibition", "setting": "[1]", "value": 0.95, "unit": "%"}, {"measurement": "inhibition", "setting": "[2]", "value": 0.5, "unit": "%"}, {"measurement": "inhibition", "setting": "[3]", "value": -8.54, "unit": "%"}, {"measurement": "inhibition", "setting": "[4]", "value": 3.42, "unit": "%"}, {"measurement": "inhibition", "setting": "[5]", "value": 3.76, "unit": "%"}, {"measurement": "inhibition", "setting": "[6]", "value": 6.55, "unit": "%"}, {"measurement": "IC50", "setting": "[7]", "value": 1.8, "unit": "µM"}, {"measurement": "inhibition", "setting": "[8]", "value": -4.37, "unit": "%"}]}, {"compound": "Nc1n[nH]c2nnc(-c3c(-c4ccccc4)nn4ccccc34)cc12", "values": [{"measurement": "inhibition", "setting": "[1]", "value": -0.55, "unit": "%"}, {"measurement": "inhibition", "setting": "[2]", "value": -0.77, "unit": "%"}, {"measurement": "inhibition", "setting": "[3]", "value": -2.39, "unit": "%"}, {"measurement": "inhibition", "setting": "[4]", "value": 27.3, "unit": "%"}, {"measurement": "inhibition", "setting": "[5]", "value": 22.8, "unit": "%"}, {"measurement": "inhibition", "setting": "[6]", "value": 9.17, "unit": "%"}, {"measurement": "IC50", "setting": "[7]", "value": 5.4, "unit": "µM"}, {"measurement": "inhibition", "setting": "[8]", "value": 4.86, "unit": "%"}]}]}
